Measurements reported in patent publication US20040023907A1, “Infection model” (priority 2000, published 2004).
“Also recorded” adds a separate entry of the source.

Experiments:
[1] = tested on: candida albicans (virulent strain Sc5314, avirulent strain Can34); experiment: Influence of antimycotics on adhesion of candida albicans to in vitro skin and intestinal test systems (co-cultivation, colony count); format: cell-based; details: for influence on growth rates of the pathogen: co-cultivation with in vitro skin and intestinal test systems in presence of antimycotic; for influence on the adhesion of the pathogen: human in vitro skin and intestinal test systems, submerse culture, antimycotic 0.1, 0.5, 1.0, 2.0 μg/μl, colony count vs samples without antimycotic
From the text: In an especially preferred embodiment, the present invention relates to the co-cultivation of the human-pathological microorganism candida albicans with the human in vitro skin test system or the human in vitro intestinal test system in order to investigate the first stage of the infection process, i.e. the adhesion of the pathogen to the skin or intestinal cells. The adhesion of the pathogen is investigated using the virulent candida strain Sc5314 and the avirulent candida strain Can34 that have already been studied in a mouse macrophage model (Longitudinal et al., Cell, 90 (1997), 939-949). The in vitro skin test system or the in vitro intestinal test system is in each case inoculated in submerse culture with about 10^3 pathogenic organisms and cultivated with shaking. At defined times, for example every 30 minutes (up to a maximum of 4 hours), aliquot amounts are removed and plated out into Petri dishes with appropriate nutrient media, for example YPD full medium (Difco). After an appropriate incubation time, the number of colonies in the Petri dishes is determined. The adhesion of the pathogens on the in vitro organ test systems can be determined based on the comparison between the determined colony count and the originally inoculated number of pathogens.
In a preferred embodiment, the method for investigating the adhesion of candida on the in vitro intestinal test system according to the invention and on the in vitro skin test system according to the invention is modified in such a way that the co-cultivation preparation contains an antimycotic, in particular amphothericin B or fluconazole.
In order to determine the adhesion of the pathogen on cells, 12 each inserts of the human in vitro skin test system held in submerse culture or 12 each inserts of the in vitro intestinal test system held in submerse culture were infected each with 10^3 pathogenic organisms of the virulent candida strain Sc5314 or of the avirulent candida strain Can34 (Longitudinal et al., Cell 90 (1997), […]). The inserts were then incubated with shaking at 37° C. for 30, 60, 90, 120, 150, or 180 min.
At the specified times, the supernatant was removed and plated out in Petri dishes with YPD nutrient medium. After an incubation period of 2 days, the colonies in the Petri dishes were counted. Based on the comparison between the determined colony count and originally inoculated number of pathogens, it was determined that approximately 95% of the virulent strain and 10% of the avirulent strain adhered to the in vitro skin model after 2 hours.
In order to determine the influence of antimycotics on the adhesion of candida albicans on skin and intestinal cells, 12 inserts of the in vitro skin test system held in submerse culture and 12 inserts of the in vitro intestinal test system each were infected with 10^3 pathogenic organisms of the virulent candida strain Sc5314 or the avirulent candida strain Can34. Amphotericin B was added to 5 inserts in a concentration of 0.1, 0.5, 1.0, and 2.0 μg/μl, and fluconazole was added to 5 inserts in a concentration of 0.1, 0.5, 1.0, and 2.0 μg/μl. The inserts were then incubated with shaking at 37° C. for up to 3 days.
After 16, 24, 72, 86, and 98 hours, aliquot amounts were removed and plated out in Petri dishes with YPD nutrient media. After an incubation period of 2 days, the colonies in the Petri dishes were counted.

[2] = tested on: candida albicans (virulent strain Sc5314, avirulent strain Can34); experiment: Influence of antimycotics on penetration/invasion of candida albicans into in vitro skin and intestinal test systems (histology, PAS staining); format: cell-based; details: human in vitro skin and intestinal test systems, antimycotic 0.1, 0.5, 1.0, 2.0 μg/μl, histology after approximately 18 to 24 hours
From the text: In another particularly preferred embodiment, the present invention relates to the co-cultivation of the human-pathogenic microorganism candida albicans with the human in vitro skin test system prepared according to the invention or with the human in vitro intestinal test prepared according to the invention in order to investigate another stage of the infection process, i.e. the penetration/invasion of the pathogen into cells. For this, the organoid tissue test systems are co-cultivated using the airlift process with the previously described avirulent and virulent pathogen strains. The pathogen is preferably fixed with a cell count of 10^3/ml in 1% agar, and agar pieces with a diameter of 4 mm are placed onto the organoid tissue test systems for up to 98 hours. The penetration of the pathogen into the organoid structures was studied after 16 hours, 24 hours, 72 hours, 86 hours, and 98 hours using histological methods on thin sections, employing the PAS staining method (McManaus, Romeis, 17th ed., page 393). Using the histological sections, the invasion process of the virulent candida strain into the deeper layers of the connective-tissue-like matrix can be documented.
In another preferred embodiment, the method for investigating the penetration/invasion of candida with the in vitro intestinal test system and the in vitro skin test system was modified in such a way that the co-cultivation preparation contained amphothericin B or fluconazole.
In order to determine the penetration of the pathogen, 12 inserts of the in vitro skin system held in airlift culture and 12 inserts of the in vitro intestinal system held in airlift culture each were infected with 10^3 pathogenic organisms of the virulent candida strain Sc5314 or the avirulent candida strain Can34. The inserts then were incubated up to 3 days at 37° C.
The penetration of the pathogen into the organoid structures was investigated after about 18 to 24 hours using histological methods on thin sections, employing the PAS staining method both for the in vitro skin system as well as for the in vitro intestinal system. […]

| Compound | influence on growth rates of the pathogen [1] | influence on the adhesion of the pathogen [1] | influence on the adhesion of the pathogen ([1]; listed as amphothericin B) | invasion (penetration) of the virulent candida strain into the organoid structures [2] | invasion (penetration) of the virulent candida strain into the organoid structures ([2]; listed as amphothericin B) |
| --- | --- | --- | --- | --- | --- |
| C[C@@H]1[C@H](O)[C@@H](C)/C=C/C=C/C=C/C=C/C=C/C=C/C=C/[C@H](O[C@@H]2O[C@H](C)[C@@H](O)[C@H](N)[C@@H]2O)C[C@@H]2O[C@](O)(C[C@@H](O)C[C@@H](O)[C@H](O)CC[C@@H](O)C[C@@H](O)CC(=O)O[C@H]1C)C[C@H](O)[C@H]2C(=O)O [amphotericin B] | influenced its growth rates | adhesion of the virulent candida strain could only be prevented by adding amphotericin B and fluconazole and by an inhibition of growth | no influence on the adhesion of the pathogen | apparently prevents the invasion of the virulent candida strain by inhibiting its growth | could only be prevented with a complete inhibition of growth |
| OC(Cn1cncn1)(Cn1cncn1)c1ccc(F)cc1F [fluconazole] | influenced its growth rates | no influence on the adhesion of the pathogen; also recorded: adhesion of the virulent candida strain could only be prevented by adding amphotericin B and fluconazole and by an inhibition of growth |  | could only be prevented with a complete inhibition of growth; also recorded: apparently prevents the invasion of the virulent candida strain by inhibiting its growth |  |
